Results reported in US20040253278A1, “Breath Freshening and Oral Cleansing Product Using Carvacrol” (priority 2002, published 2004).
Converted amounts (≈) assume the structure as drawn.

Columns and labels:
Assay type in all cases: cell-based
both bacteria [1] = assay: MIC of positive control, bacteria not named; conditions: "for both bacteria"
Procedure: (§1) In vitro tests were conducted with a gram positive supragingival plaque bacterium, Streptococcus mutans. In addition, two subgingival plaque bacteria associated with oral malodor were tested, Porphyromonas gingivalis and Fusobacterium nucleatum. The MIC (Minimum Inhibitory Concentrations) study protocol is as follows. Chlorhexidine was used as a positive control and sterile water was used as a negative control. Carvacrol was suspended in 10% methanol with 3.8% Tween 80. […] 96 well microtiter plates were used for this study. Each well contained 5×10^5 colony forming units/ml of bacteria, serially diluted agents and bacterial growth medium. All bacterial cultures were incubated at 37° C. and stationary. Bacterial growth was estimated spectrophotometrically at 660 nm, after 48 hours. The MIC for each test bacteria was defined as the minimum concentration of test compound limiting turbidity to […].

both bacteria [2] = assay: MBC of positive control, bacteria not named
Procedure: (§2) The MBC (Minimum bactericidal concentrations) were determined using the 96 well microtiter plate serial dilutions as described above for MIC studies. Serial dilution of cultures in wells showing no visible growth were performed and 10 microliters of culture were plated in triplicate on blood agar plates. Viable colonies were scored after incubation of the plates for 48 hours at 37° C. For each test bacterium, the number of CFU/ml were determined in the initial inoculum. The MBC was defined as the lowest concentration of a test compound that killed at least 99.9% of the cells present in the initial inoculum.

Fusobacterium nucleatum [3] = assay: MIC (minimum inhibitory concentration), 96 well microtiter serial dilution; conditions: 48 h
Procedure: as §1

Porphyromonas gingivalis [4] = assay: as above; conditions: 48 h
Procedure: as §1

Streptococcus mutans [5] = assay: as above; conditions: 48 h
Procedure: as §1

Fusobacterium nucleatum [6] = assay: MBC (minimum bactericidal concentration), plating on blood agar; conditions: 48 h
Procedure: as §2

Porphyromonas gingivalis [7] = assay: as above; conditions: 48 h
Procedure: as §2

Streptococcus mutans [8] = assay: as above; conditions: 48 h
Procedure: as §2

Compound | MIC (both bacteria [1]) | MBC (both bacteria [2]) | MIC (Fusobacterium nucleatum [3]) | MIC (Porphyromonas gingivalis [4]) | MIC (Streptococcus mutans [5]) | MBC (Fusobacterium nucleatum [6]) | MBC (Porphyromonas gingivalis [7]) | MBC (Streptococcus mutans [8])
[H]/N=C(\N/C(=N/[H])NCCCCCCNC(=N)NC(=N)Nc1ccc(Cl)cc1)Nc1ccc(Cl)cc1 [Cholorhexidine, Chlorhexidine] | 1.25 µg/mL | 1.25 µg/mL |  |  |  |  |  | 
Cc1ccc(C(C)C)cc1O [carvacrol] |  |  | 125 µg/mL (≈ 832 µM) | 125 µg/mL (≈ 832 µM) | 250 µg/mL (≈ 1660 µM) | 125 µg/mL (≈ 832 µM) | 125 µg/mL (≈ 832 µM) | 125 µg/mL (≈ 832 µM)
